Experimental data as given in patent US20220409617A1, “Drug Formulations and Methods of Treatment for Metabolic Disorders” (The Regents of the University of California, priority 2019, published 2022).

Assays:
[1] = Voluntary cage running in HFD-fed mice; assay type: in vivo, mouse
From the text: Exercise can mitigate the negative effects of hyper-nutrition. When provided with a running wheel, mice will voluntarily run 2-10 km per night, slowing the body weight and fat gain that normally accompany HFD feeding and improving metabolic status. To benchmark the effects of sphingolipid-like compound 893 against voluntary exercise and to determine whether the beneficial effects of these interventions are additive, 16 male, C57BL/6J mice that had been fed a HFD for 7 weeks were individually housed, provided with running wheels, and randomly assigned to receive vehicle or 120 mg/kg sphingolipid-like compound 893 on the Monday/Wednesday/Friday schedule. Rodent running activity declines under stress, and monitoring the duration and distance of voluntary wheel running also provides a holistic measure of overall mouse health. […] As expected, voluntary exercise led to weight loss in vehicle-treated mice maintained on a HFD that leveled off after the first week of intervention (FIGS. 15, 21, & 22). […] Wheel running reduced fat mass while maintaining lean mass in all groups (FIGS. 15, 22 & 23).
To monitor voluntary exercise, sixteen mice were singly housed in home cages equipped with running wheels; initially n=8. A magnet was affixed to each 240 mm wheel and a bicycle odometer (Sigma BC509, Sigma Sports, Chicago) used to count the number of wheel revolutions and time spent on running on the wheels. Distance run was calculated by the equation (#revolutions×running wheel circumference=distance). The wheels were cleaned and randomly re-assigned weekly to each cage to control for differences in wheel performance. Two animals in the sphingolipid-like compound 893-treated group were euthanized due to gavage errors and were excluded from the analysis resulting in n=6.

[2] = Fasting blood glucose and oral glucose tolerance test in HFD-fed mice; assay type: in vivo, mouse
Method: Mice were fasted for 6 h prior to blood glucose testing at ZT10. When sphingolipid-like compound 893 treatment was combined with an OGTT, mice were treated at ZT6. Once baseline fasting blood glucose was determined using a handheld blood glucose meter (Prodigy Diabetes Care, Charlotte, N.C.) and a drop of blood collected from a tail vein nick, mice were gavaged with an oral glucose solution (20% w/v in water, 2 g/kg bodyweight) and blood glucose measured in a drop of tail vein blood at 0, 15, 30, 60 and 120 min. The area under the curve was determined using Graphpad Prism software.

[3] = cited from earlier work
ARF6 = ARF6 (Homo sapiens, UniProt P62330); settings: cited from earlier work
GLUT1 = settings: cited from earlier work
PIKfyve = PIKfyve (Homo sapiens, UniProt Q9Y2I7); settings: cited from earlier work
[4] = 120 mg/kg by oral gavage, prior studies

PIKfyve, sequence (Q9Y2I7 whole entry, species assumed): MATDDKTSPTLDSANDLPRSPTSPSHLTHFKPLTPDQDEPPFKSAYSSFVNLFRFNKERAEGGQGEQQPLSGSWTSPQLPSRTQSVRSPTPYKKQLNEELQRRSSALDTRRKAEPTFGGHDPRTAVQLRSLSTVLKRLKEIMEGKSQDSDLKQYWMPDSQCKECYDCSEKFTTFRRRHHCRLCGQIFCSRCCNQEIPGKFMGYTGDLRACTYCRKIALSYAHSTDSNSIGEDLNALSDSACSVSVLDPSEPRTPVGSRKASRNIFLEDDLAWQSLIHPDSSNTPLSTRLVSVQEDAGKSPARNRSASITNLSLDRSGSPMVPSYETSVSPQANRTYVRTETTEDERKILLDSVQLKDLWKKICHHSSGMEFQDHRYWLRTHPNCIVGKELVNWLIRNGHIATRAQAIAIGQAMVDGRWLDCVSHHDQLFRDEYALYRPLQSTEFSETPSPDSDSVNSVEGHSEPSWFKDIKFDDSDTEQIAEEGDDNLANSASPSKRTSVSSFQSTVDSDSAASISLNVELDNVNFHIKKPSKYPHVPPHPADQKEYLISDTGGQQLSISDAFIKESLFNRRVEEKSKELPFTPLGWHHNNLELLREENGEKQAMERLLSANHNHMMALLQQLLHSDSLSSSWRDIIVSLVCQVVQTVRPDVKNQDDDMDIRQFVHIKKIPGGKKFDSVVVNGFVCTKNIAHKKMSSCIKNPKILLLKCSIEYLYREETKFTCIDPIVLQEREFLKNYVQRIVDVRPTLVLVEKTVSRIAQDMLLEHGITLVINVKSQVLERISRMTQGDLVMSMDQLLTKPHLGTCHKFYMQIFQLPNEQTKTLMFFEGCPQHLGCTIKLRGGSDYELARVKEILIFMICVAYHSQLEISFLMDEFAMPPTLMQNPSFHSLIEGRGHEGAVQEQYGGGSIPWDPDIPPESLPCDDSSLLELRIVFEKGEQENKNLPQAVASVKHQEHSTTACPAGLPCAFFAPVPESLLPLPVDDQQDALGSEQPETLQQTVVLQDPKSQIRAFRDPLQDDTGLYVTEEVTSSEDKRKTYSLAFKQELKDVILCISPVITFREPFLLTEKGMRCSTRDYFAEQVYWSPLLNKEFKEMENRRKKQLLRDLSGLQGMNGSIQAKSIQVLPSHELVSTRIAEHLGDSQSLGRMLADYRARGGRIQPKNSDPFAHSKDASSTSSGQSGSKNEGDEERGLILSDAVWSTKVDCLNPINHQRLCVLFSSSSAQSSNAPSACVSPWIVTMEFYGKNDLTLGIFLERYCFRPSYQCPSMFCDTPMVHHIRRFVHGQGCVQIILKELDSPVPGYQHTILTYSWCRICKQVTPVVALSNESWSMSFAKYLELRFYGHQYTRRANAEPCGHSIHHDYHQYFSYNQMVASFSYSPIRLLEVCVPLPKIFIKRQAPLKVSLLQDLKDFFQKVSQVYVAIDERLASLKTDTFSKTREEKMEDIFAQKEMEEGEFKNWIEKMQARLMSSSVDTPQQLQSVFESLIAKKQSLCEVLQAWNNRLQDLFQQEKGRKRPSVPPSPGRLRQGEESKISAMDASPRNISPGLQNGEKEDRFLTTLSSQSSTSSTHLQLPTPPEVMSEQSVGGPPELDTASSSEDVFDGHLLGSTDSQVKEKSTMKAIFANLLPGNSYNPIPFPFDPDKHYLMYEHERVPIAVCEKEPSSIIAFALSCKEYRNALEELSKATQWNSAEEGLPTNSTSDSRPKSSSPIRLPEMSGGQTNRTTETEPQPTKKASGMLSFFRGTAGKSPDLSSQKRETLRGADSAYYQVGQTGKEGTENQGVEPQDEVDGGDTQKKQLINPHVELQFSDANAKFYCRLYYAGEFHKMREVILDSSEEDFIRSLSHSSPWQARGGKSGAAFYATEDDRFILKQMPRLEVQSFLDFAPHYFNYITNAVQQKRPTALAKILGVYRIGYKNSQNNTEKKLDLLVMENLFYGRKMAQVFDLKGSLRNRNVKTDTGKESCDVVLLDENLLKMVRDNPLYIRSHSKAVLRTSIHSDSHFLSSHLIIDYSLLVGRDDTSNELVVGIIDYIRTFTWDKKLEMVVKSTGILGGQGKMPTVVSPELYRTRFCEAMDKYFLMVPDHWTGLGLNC
ARF6, sequence (P62330 whole entry, species assumed): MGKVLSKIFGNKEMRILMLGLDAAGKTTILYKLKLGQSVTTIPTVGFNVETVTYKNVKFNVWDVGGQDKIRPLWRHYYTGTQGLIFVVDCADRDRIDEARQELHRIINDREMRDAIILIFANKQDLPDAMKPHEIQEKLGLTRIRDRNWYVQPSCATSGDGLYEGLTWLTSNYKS

CCCCCCCCc1ccc([C@H]2CCN[C@@H]2CO)cc1.Cl [compound 893]
Average time spent on running wheels each day ([1]; HFD-fed mice with running wheels, 120 mg/kg): equivalent in vehicle- and sphingolipid-like compound 893-treated groups
Average daily distance run ([1]; HFD-fed mice with running wheels, 120 mg/kg Mon/Wed/Fri): 2.8±1.2 km
Weight loss, running wheel plus treatment ([1]; HFD-fed mice, running wheel and 120 mg/kg): even greater weight loss than observed with either treatment alone
Fasting glucose and glucose disposal (OGTT) ([2]; 60 mg/kg three days a week for 25 days): intermediate effect
Fasting glucose and glucose disposal (OGTT) ([2]; 120 mg/kg three days a week for 25 days): normalized both fasting glucose and glucose disposal
Amino acid-dependent mTORC1 signaling [3, 4]: reduces amino acid-dependent mTORC1 signaling
Toxicity (blood chemistry, complete blood count, liver and small intestine histology) [3, 4]: without toxicity
Tumor growth [3, 4]: inhibits tumor growth
Hepatotoxicity ([3]; chronic treatment with the high dose, otherwise healthy tumor-bearing mice): not hepatotoxic
Effect on ARF6 (ARF6): inactivates
Effect on GLUT1 (GLUT1): down-regulate GLUT1
Effect on PIKfyve (PIKfyve): inactivates
